{"source": "patent US9981043B2", "about": "“Analgesic conjugates” (priority 2013, dated 2018)", "format_in_all_cases": "in vivo", "key": {"LPS pretreated mice": {"tested_on": "LPS pretreated mice", "assay": "Acute (24 hour) tolerance, tail flick, LPS pretreated mice", "settings": "for Tolerance: 24 hours", "protocol": "(§1) Acute tolerance utilizing the radiant tail flick assay was measured by comparing the ED80-90 dose on day 1 to the same dose measured 24 hours later on the same mouse. For the LPS pretreated mice, no additional LPS was given to the mice for the acute tolerance test. […] However, the effect was less robust 72 hours after the initial LPS injection. Thus confirming that the acute tolerance test was accurate for the LPS pretreated mice."}, "control mice [1]": {"tested_on": "control mice", "assay": "Radiant tail flick antinociception, control (not pretreated) mice", "protocol": "Compounds were dissolved in 10% DMSO and then diluted to less than 1% DMSO in the test solutions. […] Compounds were administered in a 5-μl volume in conscious mice, either i.c.v. (Haley T J & McCormick W G, Br J Pharmacol Chemother, 1957, 12(1), 12-15) or i.t. (Hylden J L K & Wilcox G L, Eur. J. Pharmacol., 1980, 67(2-3), 313-316). Peak times were determined by comparing the percent maximal possible effect (% MPE) at 5, 10, 20 and 60 minutes after injection.\nThe tail flick assay is used first to test for antinociception as described by D'Amour and Smith (D'AMOUR FE & SMITH DL (1941) J. Pharmacol. Exp. Ther. 72(1):74-79) and modified by Dewey et al. (Dewey W L, Harris L S, Howes J F, & Nuite JA (1970) J. Pharmacol. Exp. Ther. 175(2):435-442). For the measurement of the tail-flick latency, mice are wrapped in a light cloth and held gently in one hand with the tail positioned in the apparatus (Tail Flick Analgesia Meter, Columbus Instruments, Columbus, Ohio) for radiant heat stimulus. The tail-flick response is elicited by applying radiant heat to the dorsal side of the tail. The intensity of the heat is set so that the mouse flicks its tail within 2 to 3 seconds. The test latency is measured before drug treatment (control) and again after the drug treatment (test) at the peak time of the compound; a 10 second maximum cut-off time is used to prevent damage to the tail. Antinociception is quantified according to the Harris L S & Pierson A K, J. Pharmacol. Exp. Ther., 1964, 143(2):141-148, as the percent maximal possible effect (% MPE), which is calculated as: % MPE=(Test−Control/10−Control)×100.\nAt least three groups of four to ten mice are used for each dose response curve. ED50 values with 95% confidence intervals (C.I.) are computed with GraphPad Prism 4 by using nonlinear regression methods."}, "live mice": {"tested_on": "live mice", "assay": "Respiratory depression (Mouse Ox O2 saturation)", "settings": "for % of mice with O2 Saturation less than 90%: i.t., LPS", "protocol": "Respiratory depression was measured in live mice using the Mouse Ox (small animal Oximeter from STARR Life Sciences Corp, Oakmont, Pa.). CollarClip™—(Un-Anesthetized Neck Sensor) for mice was used as the site for measuring the data. Day one of each experiment involved training the animals using a disposable CollarClip™. The collar was left on for approximately one hour. […] Mice were monitored for a 60-minute period, with measurements 10-20-30 and 60 minutes.\nRespiratory depression was measured in live mice using the Mouse Ox (small animal Oximeter from STARR Life Sciences Corp, Oakmont, Pa.). CollarClip™ (Un-Anesthetized Neck Sensor) for mice was used as the site for measuring the data.\nDay one of each experiment involved training the animals using a disposable CollarClip™. The collar was left on for approximately one hour.\nMice were monitored for a 60-minute period, with measurements 10-20-30 and 60 minutes."}, "control mice [2]": {"tested_on": "control mice", "assay": "Acute (24 hour) tolerance, tail flick, control mice", "settings": "controls", "protocol": "as §1"}}, "note": "“Also recorded” adds a separate entry of the source.", "data": [{"smiles": "Cc1cccc(C#Cc2cccc(OCCNC(=O)COCC(=O)NCCCCCNC(=O)COCC(=O)N[C@H]3CC[C@@]4(O)C5Cc6ccc(O)c7c6[C@@]4(CCN5C)[C@H]3O7)c2)n1", "note": "[Compound 4c, N-((4aS,7S,7aR,12bS)-4a,9-dihydroxy-3-methyl-2,3,4,4a,5,6,7,7a-octahydro-1H-4,12-methanobenzofuro[3,2-e]isoquinolin-7-yl)-2-((1-(3-((6-methylpyridin-2-yl)ethynyl)phenoxy)-4,8,16-trioxo-6-oxa-3,9,15-triazaheptadecan-17-yl)oxy)acetamide]", "values": [{"measurement": "% MPE remaining in 24 hour tolerance test", "setting": "LPS pretreated mice; i.c.v., 24 hour", "value": "Still was 40% MPE"}, {"measurement": "Tolerance", "setting": "LPS pretreated mice; i.c.v.", "value": 24, "unit": "hour tolerance"}, {"measurement": "Tolerance", "setting": "LPS pretreated mice; i.t.", "value": "without tolerance; also recorded: No Tolerance"}, {"measurement": "agonist character", "setting": "control mice [1]; control mice, i.c.v.", "value": "partial agonist"}, {"measurement": "% MPE", "setting": "control mice [1]; controls, i.c.v., 250 pmol/mouse", "value": "71 ± 10", "unit": "% MPE"}, {"measurement": "ED50 (CI) i.t.", "setting": "control mice [1]; controls, i.t., tail flick", "value": 38.70, "unit": "pmol/mouse"}, {"measurement": "safety margin", "setting": "live mice; compared with morphine", "value": "greater safety margin than morphine"}, {"measurement": "therapeutic index", "setting": "live mice; estimated", "value": "greater than a million"}, {"measurement": "% of mice with O2 Saturation less than 90%", "setting": "live mice; dose 50,000 times the ED90", "value": 0, "unit": "%"}, {"measurement": "% of mice with O2 Saturation less than 90%", "setting": "live mice; dose 100,000 times the ED90", "value": 100, "unit": "%"}, {"measurement": "respiratory depression", "setting": "live mice; mouse, in vivo", "value": "no tolerance or respiratory depression"}, {"measurement": "Tolerance", "setting": "control mice [2]; i.c.v.", "value": "No Tolerance"}, {"measurement": "Tolerance", "setting": "control mice [2]; i.t.", "value": "No Tolerance"}]}]}
